Experimental data reported in US10927155B2, “Dual inhibitory action peptidomimetic inhibitor for IL-33 and IL-1beta” (GEORGE MASON UNIVERSITY, priority 2015, dated 2021).
Bridge positions count the residues as written; N and C are the ends. Ends that are not written are not given here.

Test system: IL-1β/IL-1R1 dependent signaling
Test: HEK-Blue IL-33/IL-1β reporter cells (SEAP) stimulated with IL-1β
Type: cell-based
Conditions: FIG. 15; for IL-1β/IL-1R1 dependent signaling (NF-κB and AP-1): HEK Blue reporter cells stimulated with IL-1
Source text: HEK-Blue™ IL-33/IL-1β cells were purchased from InvivoGen. These cells were transfected with a reporter gene, secreted embryonic alkaline phosphatase (SEAP), under the control of the IFN-β minimal promoter fused to five NF-κB and five AP-1 binding sites. In the presence of bioactive IL1β and/or IL33, HEK-Blue cells activate the NF-κB and AP-1 pathways triggering the production of SEAP. SEAP activity in cell supernatant is quantified using a colorimetric enzyme assay (QUANTI-Blue™, InvivoGen).
HEK Blue IL-33/IL-1β Reporter Cells. HEK-Blue™ IL-33/IL-1β Cells were purchased from InvivoGen. These cells were generated by transfection with a reporter gene, secreted embryonic alkaline phosphatase (SEAP), under the control of the IFN-β minimal promoter fused to five NF-κB and five AP-1 binding sites. In the presence of bioactive IL-1β and/or IL-33, HEK-Blue cells activated the NF-κB and AP-1 pathways triggering the production of SEAP. SEAP activity in cell supernatant was quantified using a colorimetric enzyme assay (QUANTI-Blue™, InvivoGen). HEK Blue cells were grown in DMEM, 4.5 g/l glucose, 2 mM L-Glutamine, 10% (v/v) heat-inactivated fetal bovine serum (30 min at 56° C.). After two passages, cells were exposed to selective medium (DMEM, 4.5 g/l glucose, 2 mM L-Glutamine, 10% heat-inactivated FBS (v/v) with of blasticidin (30 μg/ml), hygromycin B ([…]), and Zeocin™ ([…])). Cells were then plate in 96 well plates (10,000 cell per well) and stimulated with IL-1β (1 ng) and IL-33 (5 ng) in presence or absence of inhibitors.

| Substance | IL-1β/IL-1R1 dependent signaling (NF-κB and AP-1) | signaling activity of cytokine specificity controls (cytokine used instead of IL-1 as stimulus) |
| --- | --- | --- |
| TINQSCSHSRTQNQTRTQCLS (disulfide 6-19 (inferred)) [RedAgg_Cycl, Arg286 peptide with glutamine replacements and two cysteines forming a disulfide bridge] | inhibit IL-1β/IL-1R1 dependent signaling |  |
| TINQSISHSRTQNQTRTQILS (Synthetic construct RedAgg) [Arg286 peptide with glutamic acid replaced by glutamine to reduce aggregation] | inhibit IL-1β/IL-1R1 dependent signaling |  |
| TNFα [reference compound] |  | no significant signaling activity |
| TINESISHSRTEDETRTQILS (Synthetic construct Arg286) | inhibit IL-1β/IL-1R1 dependent signaling |  |
| TINESCSHSRTEDETRTQCLS [Cycl] | inhibit IL-1β/IL-1R1 dependent signaling |  |
